From publication PMC8746797, “Design, Synthesis, and Structure–Activity Relationship Study of Potent MAPK11 Inhibitors” (Molecules, 2021)
Like-named read-outs stand apart in the source and are kept apart here.

Columns and labels:
MAPK11 = MAPK11 (Homo sapiens, UniProt Q15759); assay: Enzyme assay against MAPK11 (mobility shift assay); format: biochemical; settings: for IC50: mobility shift assay, mean ± SD of at least two independent determinations, read-out: MAPK11 Enzyme Inhibitory Activity IC50
Sequence of MAPK11 (Q15759 whole entry): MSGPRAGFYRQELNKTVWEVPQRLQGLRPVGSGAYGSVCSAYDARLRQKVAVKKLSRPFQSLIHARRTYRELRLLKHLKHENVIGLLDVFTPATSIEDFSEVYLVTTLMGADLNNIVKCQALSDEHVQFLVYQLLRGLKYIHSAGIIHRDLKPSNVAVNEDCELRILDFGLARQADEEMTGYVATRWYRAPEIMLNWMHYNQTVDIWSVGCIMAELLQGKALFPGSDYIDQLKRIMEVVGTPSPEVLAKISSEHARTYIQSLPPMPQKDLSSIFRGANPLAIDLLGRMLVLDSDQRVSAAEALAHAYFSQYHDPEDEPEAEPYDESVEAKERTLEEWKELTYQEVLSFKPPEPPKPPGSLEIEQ
Protocol: The effect of the above synthesized inhibitors on MAPK11 kinase activity in vitro was assessed using mobility shift assay by ChemPartner. Following the kinase reaction, a part of the substrate was added to a phosphate group under the action of the kinase to yield a product. The substrate and the product have a difference of 3 charges, thereby allowing them to be separated and detected by capillary electrophoresis. […] Finally, the data was fitted to the XLFit Excel plug-in version 5.4.0.8 to calculate the IC50 value.

MAPK14 = settings: cited from earlier work

| SMILES | IC50 (MAPK11) [nM] | melting point [°C] | also measured |
| --- | --- | --- | --- |
| O=C1c2ccc(Nc3ccc(F)cc3F)cc2CCc2ccc(OC[C@H](O)CO)cc21 [Compound 12a, reference compound] | 19.2 ± 0.9 | – | IC50 (MAPK14): 5 nM |
| Cc1cc(OC[C@H](O)CO)cc2c1CCc1cc(Nc3ccc(F)cc3F)ccc1C2=O [Compound 12b] | 14.5 ± 0.3 | 135.1 to 135.8 | – |
| O=C1c2ccc(Nc3ccc(F)cc3F)cc2CCc2ccc(OC[C@@H](O)CO)cc21 [Compound 12c] | 32 ± 0.6 | – | – |
| O=C1c2ccc(Nc3ccc(F)cc3F)cc2CCc2ccc(OCCCO)cc21 [Compound 12d] | 25.9 ± 0.7 | – | – |
| Cc1cc(OCCCO)cc2c1CCc1cc(Nc3ccc(F)cc3F)ccc1C2=O [Compound 12e] | 16.4 ± 0.6 | 127.2 to 127.7 | – |
| COC(=O)CCCOc1ccc2c(c1)C(=O)c1ccc(Nc3ccc(F)cc3F)cc1CC2 [Compound 12f] | 61 ± 2.1 | 124.6 to 125 | decrease in potency against MAPK11 relative to 13a (MAPK11; ester 12f vs carboxylic acid 13a): about 10 fold |
| O=C(O)CCCOc1ccc2c(c1)C(=O)c1ccc(Nc3ccc(F)cc3F)cc1CC2 [Compound 13a] | 6.4 ± 0.6 | – | fold more potent than 12a (skepinone-L) against MAPK11 (MAPK11; ratio of IC50 values vs 12a): 3 fold |
| Cc1cc(OCCCC(=O)O)cc2c1CCc1cc(Nc3ccc(F)cc3F)ccc1C2=O [Compound 13b, 4-((8-((2,4-difluorophenyl)amino)-1-methyl-5-oxo-10,11-dihydro-5H-dibenzo [a,d][7]annulen-3-yl)oxy)butanoic acid] | 4.2 ± 0.1 | 120.4 to 120.6 | – |
| O=C1c2ccc(Nc3ccc(F)cc3F)cc2CCc2ccc(OC3CC(C(=O)O)C3)cc21 (stereo not drawn) [Compound 13c] | 14.3 ± 0.6 | 145.3 to 145.9 | – |
| NC(=O)CCCOc1ccc2c(c1)C(=O)c1ccc(Nc3ccc(F)cc3F)cc1CC2 [Compound 14a] | 8.4 ± 0.1 | – | – |
| O=S(=O)(c1ccc(Nc2ccc(F)cc2F)cc1)c1cccc(OC[C@H](O)CO)c1 [Compound 23b] | > 10000 | 135.9 to 136.6 | – |
| O=S(=O)(c1ccc(Nc2ccc(F)cc2F)cc1)c1cccc(OC[C@@H](O)CO)c1 [Compound 23c] | > 10000 | 136.3 to 136.7 | – |
| COC(=O)CCCOc1cccc(S(=O)(=O)c2ccc(Nc3ccc(F)cc3F)cc2)c1 [Compound 23d] | – | 126.8 to 127.4 | – |
| O=C(O)CCCOc1cccc([S+]([O-])c2ccc(Nc3ccc(F)cc3F)cc2)c1 (stereo not drawn) [Compound 25] | 2550 ± 682 | – | decrease in potency against MAPK11 compared to dibenzocycloheptanone compounds (MAPK11): more than a hundred-fold decrease |
| O=C(O)CCCOc1cccc(S(=O)(=O)c2ccc(Nc3ccc(F)cc3F)cc2)c1 [Compound 26] | > 10000 | 132.6 to 133.1 | – |
| CC(C)(C)Cn1c(N)nc2ccc(-c3[nH]c(C(C)(C)C)nc3-c3ccc(F)cc3)nc21 [LY2228820] | – | – | IC50 (MAPK14; Figure 1): 5.3 nM |
